Measured values taken from US20250213558A1, “T-TYPE CALCIUM CHANNEL MODULATORS COMPRISING A PIPERAZINE OR 1,4-DIAZEPANE CORE AND METHODS OF USE THEREOF” (Praxis Precision Medicines, Inc., priority 2022, published 2025).

Biological target: T1, Human Cav3.1 calcium channel (Homo sapiens, UniProt O43497)
T1 construct: expressed in transfected cells; host or cells: HEK-293 natClytin/TASK1+Cav3.1 cell line
Test: Human Cav3.1 calcium channel patch clamp assay (SyncroPatch 384PE; single point and IC50, voltage dependent block)
Type: cell-based
Conditions: HEK-293 natClytin/TASK1+Cav3.1 cell line; for % Inhibition (Single Point Data): Testing Conc 1.25, patch clamp; for IC50: voltage dependent block (VDB), read-out: Cav3.1 IC50
In short: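 Automated whole-cell patch clamp at room temperature, cells held at −120 mV; 100 ms step to −20 mV (resting block), then 1600 ms at −65 mV and a second −20 mV step (voltage-dependent block), every 15 s. Peak currents averaged over last 3 sweeps; % inhibition relative to nickel-sensitive current.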

T1 sequence (O43497 whole entry): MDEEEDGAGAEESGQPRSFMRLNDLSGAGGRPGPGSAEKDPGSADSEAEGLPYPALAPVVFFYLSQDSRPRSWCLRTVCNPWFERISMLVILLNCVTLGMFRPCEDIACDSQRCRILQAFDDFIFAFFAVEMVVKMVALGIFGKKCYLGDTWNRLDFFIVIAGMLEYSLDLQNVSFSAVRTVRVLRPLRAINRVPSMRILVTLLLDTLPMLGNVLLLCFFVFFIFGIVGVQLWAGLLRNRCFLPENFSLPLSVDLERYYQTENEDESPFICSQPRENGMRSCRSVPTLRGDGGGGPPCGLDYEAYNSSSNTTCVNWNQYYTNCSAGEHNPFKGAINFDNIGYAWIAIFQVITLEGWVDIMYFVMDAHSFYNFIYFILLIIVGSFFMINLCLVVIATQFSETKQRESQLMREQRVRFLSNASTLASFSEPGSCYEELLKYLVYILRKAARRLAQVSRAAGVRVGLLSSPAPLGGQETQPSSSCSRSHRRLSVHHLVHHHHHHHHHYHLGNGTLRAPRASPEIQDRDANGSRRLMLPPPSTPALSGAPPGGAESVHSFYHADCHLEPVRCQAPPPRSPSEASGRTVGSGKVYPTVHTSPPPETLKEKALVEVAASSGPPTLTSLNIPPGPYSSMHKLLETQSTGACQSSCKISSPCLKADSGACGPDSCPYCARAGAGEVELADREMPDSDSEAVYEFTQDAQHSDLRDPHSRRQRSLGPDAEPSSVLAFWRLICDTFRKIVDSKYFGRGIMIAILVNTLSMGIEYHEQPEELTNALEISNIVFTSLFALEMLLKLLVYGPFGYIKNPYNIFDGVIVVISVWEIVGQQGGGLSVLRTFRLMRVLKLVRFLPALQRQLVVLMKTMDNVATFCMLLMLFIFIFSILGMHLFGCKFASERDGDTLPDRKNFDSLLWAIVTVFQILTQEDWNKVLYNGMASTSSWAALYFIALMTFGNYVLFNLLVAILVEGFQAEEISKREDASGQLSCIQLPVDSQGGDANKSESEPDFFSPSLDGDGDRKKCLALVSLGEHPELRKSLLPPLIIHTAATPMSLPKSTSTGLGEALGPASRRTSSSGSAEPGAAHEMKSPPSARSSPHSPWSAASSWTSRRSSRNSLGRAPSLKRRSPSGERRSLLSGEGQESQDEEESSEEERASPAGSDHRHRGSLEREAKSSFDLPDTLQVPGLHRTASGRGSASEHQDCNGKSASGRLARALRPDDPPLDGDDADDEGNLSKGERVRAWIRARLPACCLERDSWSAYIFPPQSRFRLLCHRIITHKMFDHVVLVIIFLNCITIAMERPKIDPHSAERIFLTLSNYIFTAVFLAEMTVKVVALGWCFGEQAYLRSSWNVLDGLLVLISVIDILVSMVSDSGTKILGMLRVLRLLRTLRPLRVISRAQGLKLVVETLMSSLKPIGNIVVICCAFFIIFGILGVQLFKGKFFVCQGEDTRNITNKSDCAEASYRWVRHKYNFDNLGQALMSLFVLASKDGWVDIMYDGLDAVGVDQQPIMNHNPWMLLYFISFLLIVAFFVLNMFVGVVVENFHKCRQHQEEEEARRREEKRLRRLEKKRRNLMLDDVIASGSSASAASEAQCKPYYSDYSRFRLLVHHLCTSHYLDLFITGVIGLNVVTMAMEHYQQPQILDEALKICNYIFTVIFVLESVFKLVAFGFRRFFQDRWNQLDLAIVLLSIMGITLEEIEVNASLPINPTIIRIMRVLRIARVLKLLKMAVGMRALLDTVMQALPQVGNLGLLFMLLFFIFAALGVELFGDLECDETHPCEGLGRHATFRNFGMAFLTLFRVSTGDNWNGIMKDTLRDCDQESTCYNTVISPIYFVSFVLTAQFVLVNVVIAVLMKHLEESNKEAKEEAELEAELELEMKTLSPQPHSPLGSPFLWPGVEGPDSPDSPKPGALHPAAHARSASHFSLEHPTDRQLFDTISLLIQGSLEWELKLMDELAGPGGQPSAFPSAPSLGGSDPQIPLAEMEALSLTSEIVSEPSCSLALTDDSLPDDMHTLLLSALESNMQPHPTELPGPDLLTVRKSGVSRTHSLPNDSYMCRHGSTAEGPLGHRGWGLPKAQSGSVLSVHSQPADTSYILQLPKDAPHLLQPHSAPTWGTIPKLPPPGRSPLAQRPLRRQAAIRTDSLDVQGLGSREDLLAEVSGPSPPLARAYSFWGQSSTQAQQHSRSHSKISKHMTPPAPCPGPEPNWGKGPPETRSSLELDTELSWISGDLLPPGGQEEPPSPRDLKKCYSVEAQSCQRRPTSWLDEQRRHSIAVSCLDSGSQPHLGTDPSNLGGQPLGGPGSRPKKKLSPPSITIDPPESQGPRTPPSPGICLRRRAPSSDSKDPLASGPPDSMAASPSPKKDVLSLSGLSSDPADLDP

SMILES	% Inhibition (Single Point Data) [%]	IC50 [nM]
CC(C)(C)NC(=O)CN1C2CC1CN(CC(=O)NC13CC4CC(CC(C4)C1)C3)C2 [Compound 258]	91.927	410
CC(C)(C)NC(=O)CN1C[C@@H]2C[C@H]1CN2CC(=O)NC12CC3CC(CC(C3)C1)C2 [Compound 259]	91.279	–
CC(C(=O)NC(C)(C)C)N1C2CC1CN(CC(=O)Nc1ccc(F)c(Cl)c1)C2 (centres unmarked) [Compound 260]	80.656	274
CC(C)(C)NC(=O)CN1C[C@H]2C[C@@H]1CN2CC(=O)NC12CC3CC(CC(C3)C1)C2 [Compound 261]	70.332	518
CC(C(=O)Nc1cc(F)cc(Cl)c1)N1C[C@@H]2C[C@H]1CN2CC(=O)NC1(C(F)(F)F)CC1 (some centres unmarked) [Compound 262]	87.794	215
CC(C(=O)Nc1ccc(F)c(OC(F)F)c1)N1C[C@@H]2C[C@H]1CN2CC(=O)NC(C)(C)C (some centres unmarked) [Compound 263]	90.098	234
CC(C(=O)Nc1ccc(F)c(Cl)c1)N1C[C@@H]2C[C@H]1CN2CC(=O)NC(C)(C)C (some centres unmarked) [Compound 264]	85.955	242
CC(C(=O)Nc1cc(F)cc(OC(F)F)c1)N1C[C@@H]2C[C@H]1CN2CC(=O)NC(C)(C)C (some centres unmarked) [Compound 265]	88.764	–
CC(C)(C)NC(=O)CN1C[C@H]2CC[C@@H]1CN2CC(=O)Nc1ccc(F)c(OC(F)F)c1 [Compound 266]	61.569	803
CC(C)(C)NC(=O)CN1C[C@@H]2CC[C@H]1CN2CC(=O)Nc1ccc(F)c(OC(F)F)c1 [Compound 267]	73.222	455
CC(C)(C)NC(=O)CN1C[C@H]2CC[C@@H]1CN2CC(=O)Nc1cc(F)cc(Cl)c1 [Compound 268]	85.508	356
CC(C)(C)NC(=O)CN1C[C@H]2CC[C@@H]1CN2CC(=O)Nc1ccc(F)c(Cl)c1 [Compound 269]	62.186	888
CC(C)(C)NC(=O)CN1C[C@@H]2CC[C@H]1CN2CC(=O)Nc1cc(F)cc(Cl)c1 [Compound 270]	95.978	–
CC(C)(C)NC(=O)CN1C[C@@H]2CC[C@H]1CN2CC(=O)Nc1ccc(F)c(Cl)c1 [Compound 271]	70.509	581
Cc1cc(CNC(=O)CN2CC3CC(C2)N3CC(=O)NC(C)(C)C)nn1-c1ccccc1 [Compound 273]	6.1482	–
O=C(CN1CC2CC(C1)N2CC1(O)CCC(F)(F)CC1)NC12CC3CC(CC(C3)C1)C2 [Compound 278]	45.568	1210

SMILES	% Inhibition (Single Point Data) [%]	IC50 [nM]
O=C(CN1CC2CC(C1)N2CC(=O)NC1(C(F)(F)F)CC1)NC12CC3CC(CC(C3)C1)C2 [Compound 281]	54.316	900
COc1cc(Cl)cc(NC(=O)CN2CC3CC(C2)N3CC(=O)NC(C)(C)C)c1 [Compound 284]	103.09	–
CC(C)(C)NC(=O)CN1C2CC1CN(CC(=O)Nc1cc(Cl)cc(Cl)c1)C2 [Compound 286]	89.866	106
O=C(CN1CC2CC(C1)N2CCC1CCOCC1)NC12CC3CC(CC(C3)C1)C2 [Compound 292]	11.934	4770
CC(C)(C)C(O)CN1C2CC1CN(CC(=O)NC13CC4CC(CC(C4)C1)C3)C2 (centres unmarked) [Compound 293]	38.151	1680
CC(C)(C)NC(=O)CN1C2CC1CN(C(=O)NCC13CC4CC(CC(C4)C1)C3)C2 [Compound 295]	0.753	–
CC1(C)CC(CN2C3CC2CN(CC(=O)NC24CC5CC(CC(C5)C2)C4)C3)CCO1 (centres unmarked) [Compound 299]	43.196	932
CC(C)Cc1cc(CNC(=O)CN2CC3CC(C2)N3CC(=O)NC(C)(C)C)nn1-c1ccccc1 [Compound 301]	19.445	3240
CC(C)(C)NC(=O)CN1C2CC1CN(C(=O)NC13CC4CC(CC(C4)C1)C3)C2 [Compound 303]	23.993	8850
Cc1cc(Cl)cc(NC(=O)CN2CC3CC(C2)N3CC(=O)NC(C)(C)C)c1 [Compound 305]	101.69	199
CC(C)(C)NC(=O)CN1C2CC1CN(CC(=O)NCC13CC4CC(CC(C4)C1)C3)C2 [Compound 306]	34.765	1990
CC(C)(C)NC(=O)CN1C2CC1CN(CC(=O)NC13CCC(CC1)CC3)C2 [Compound 307]	41.625	1010
CC(C)(C)NC(=O)CN1C2CC1CN(CC(=O)NC13CCC(CC1)C3)C2 [Compound 308]	33.02	1930
CC(C)(C)NC(=O)CN1C2CC1CN(CC(=O)NC1CCCCC1)C2 [Compound 309]	22.713	–
CC(C)(C)NC(=O)CN1C2CC1CN(CC(=O)Nc1ccn(Cc3ccc(C#N)cn3)n1)C2 [Compound 313]	−11.969	–
CC(C)(C)NC(=O)CN1C2CC1CN(CC(=O)NC13CC4CC(CC(F)(C4)C1)C3)C2 [Compound 315]	72.558	592

Further lines, results first:

% Inhibition (Single Point Data) [%]	IC50 [nM]	SMILES
98.544	71.2	CC(C)(C)NC(=O)CN1C[C@@H]2C[C@H]1CN2CC(=O)Nc1cc(Cl)cc(Cl)c1 [Compound 272]
13.426	–	Cc1cc(CNC(=O)CN2C[C@@H]3C[C@H]2CN3CC(=O)NC(C)(C)C)nn1-c1ccccc1 [Compound 274]
93.716	–	COc1cc(F)cc(NC(=O)CN2C[C@@H]3C[C@H]2CN3CC(=O)NC(C)(C)C)c1 [Compound 275]
71.467	474	Cc1cc(F)cc(NC(=O)CN2C[C@@H]3C[C@H]2CN3CC(=O)NC(C)(C)C)c1 [Compound 276]
56.486	886	O=C(CN1C[C@@H]2C[C@H]1CN2CC1(O)CCC(F)(F)CC1)NC12CC3CC(CC(C3)C1)C2 [Compound 277]
79.691	4020	O=C(CN1C[C@@H]2C[C@H]1CN2CC1(F)CCC(F)(F)CC1)NC12CC3CC(CC(C3)C1)C2 [Compound 279]
61.038	759	O=C(CN1C[C@@H]2C[C@H]1CN2CC(=O)NC1(C(F)(F)F)CC1)NC12CC3CC(CC(C3)C1)C2 [Compound 280]
98.739	74.8	COc1cc(Cl)cc(NC(=O)CN2C[C@@H]3C[C@H]2CN3CC(=O)NC(C)(C)C)c1 [Compound 282]
94.657	140	Cc1cc(Cl)cc(NC(=O)CN2C[C@@H]3C[C@H]2CN3CC(=O)NC(C)(C)C)c1 [Compound 283]
45.897	1270	CC(C)(C)NC(=O)CN1C[C@@H]2C[C@H]1CN2CC(=O)NCC12CC3CC(CC(C3)C1)C2 [Compound 285]
72.068	682	CC(C)(C)NC(=O)CN1C[C@@H]2C[C@H]1CN2CC(=O)NC12CCC(CC1)CC2 [Compound 287]
23.299	1710	CC(C)(C)NC(=O)CN1C[C@@H]2C[C@H]1CN2CC(=O)NC12CCC(CC1)C2 [Compound 288]
36.292	5020	CC(C)(C)NC(=O)CN1C[C@@H]2C[C@H]1CN2CC(=O)NC1CCCCC1 [Compound 289]
8.7515	–	CC(C)(C)NC(=O)CN1C[C@@H]2C[C@H]1CN2C(=O)NCC12CC3CC(CC(C3)C1)C2 [Compound 290]
18.238	3330	O=C(CN1C[C@@H]2C[C@H]1CN2CCC1CCOCC1)NC12CC3CC(CC(C3)C1)C2 [Compound 291]
101.56	58.7	CC(C)(C)NC(=O)CN1C[C@@H]2C[C@H]1CN2CC(=O)Nc1cc(Cl)cc(OC(F)F)c1 [Compound 294]
63.628	703	CC(C)(C)C(O)CN1C[C@@H]2C[C@H]1CN2CC(=O)NC12CC3CC(CC(C3)C1)C2 (some centres unmarked) [Compound 297]
26.791	2080	CC1(C)CC(CN2C[C@@H]3C[C@H]2CN3CC(=O)NC23CC4CC(CC(C4)C2)C3)CCO1 (some centres unmarked) [Compound 298]
65.343	612	CC(C)(C)NC(=O)CN1C[C@@H]2C[C@H]1CN2CC(=O)NC12CC3CC(CC(F)(C3)C1)C2 [Compound 300]
21.003	3320	CC(C)Cc1cc(CNC(=O)CN2C[C@@H]3C[C@H]2CN3CC(=O)NC(C)(C)C)nn1-c1ccccc1 [Compound 302]
25.21	4770	CC(C)(C)NC(=O)CN1C[C@@H]2C[C@H]1CN2C(=O)NC12CC3CC(CC(C3)C1)C2 [Compound 304]
84.193	241	COc1cc(NC(=O)CN2C[C@@H]3C[C@H]2CN3CC(=O)NC(C)(C)C)ccc1F [Compound 310]
83.804	385	COc1cc(NC(=O)CN2C[C@@H]3C[C@H]2CN3CC(=O)NC2(C(F)(F)F)CC2)ccc1F [Compound 311]
4.6566	–	CC(C)(C)NC(=O)CN1C[C@@H]2C[C@H]1CN2CC(=O)NC12CC3CC(CC(O)(C3)C1)C2 [Compound 312]
5.0515	–	CC(C)(C)NC(=O)CN1C[C@@H]2C[C@H]1CN2CC(=O)Nc1ccn(Cc2ccc(C#N)cn2)n1 [Compound 314]
